The values below come from patent US20100048606A1, “10-Substituted Cytisine Derivatives and Methods of Use Thereof” (Georgetown University Office of Technology Commercialization, priority 2006, published 2010).

One assay deals with T1, α2β2 nAChR (Rattus norvegicus, UniProt P12389+P12390).
T1 construct: expressed in transfected cells
The assay is described as follows: Competition binding with [3H]epibatidine, membrane homogenates of stably transfected cells. To be noted: for potency estimated from few doses: read-out: Estimated Ki α2β2.

Assay [1] addresses nAChRs of rat forebrain tissue (Rattus norvegicus, UniProt P09483+P12390). It counts as binding. Conditions: for Ki: mean of three to five independent measurements.
Another assay deals with T2, α3β4 nAChR (Rattus norvegicus, UniProt P04757+P12392).
T2 construct: expressed in transfected cells
Put plainly: Competition binding with [3H]epibatidine, membrane homogenates of stably transfected cells. Conditions: for potency estimated from few doses: read-out: Estimated Ki α3β4.

The target of another assay is T3, α2β4 nAChR (Rattus norvegicus, UniProt P12389+P12392).
T3 construct: expressed in transfected cells
Described as above. To be noted: for potency estimated from few doses: read-out: Estimated Ki α2β4.

The target of a further assay is T4, α3β2 nAChR (Rattus norvegicus, UniProt P04757+P12390).
T4 construct: expressed in transfected cells
The assay is described as above. Conditions: for potency estimated from few doses: read-out: Estimated Ki α3β2.

Another assay concerns the target T5, α4β2 nAChR (Rattus norvegicus, UniProt P09483+P12390).
T5 construct: expressed in transfected cells
Described as above. To be noted: for Affinity ratio (α3β4/α4β2): Ki α3β4 divided by Ki α4β2; for potency estimated from few doses: read-out: Estimated Ki α4β2.

In the next assay the target is T6, α4β4 nAChR (Rattus norvegicus, UniProt P09483+P12392).
T6 construct: expressed in transfected cells
The assay is described as above. Conditions: for potency estimated from few doses: read-out: Estimated Ki α4β4.

The test system of a further assay is α6β42. Put plainly: Primary screening, single concentration competition binding assay. Conditions: estimated from single concentration (10 μM) competition binding, read-out: Estimated Ki α6β42.
For the next assay, the target named is T7, α4β2 nAChR subtype (Homo sapiens, UniProt P17787+P43681).
T7 construct: expressed in transfected cells
Put plainly: Antagonist activity, block of nicotine stimulated responses. Format: cell-based. The protocol: (§1) Compounds 15 and 17a are antagonists of the α4β2 nAChR subtype. […] Compounds 15 and 17a were tested for their antagonist activities at the α4β2 and α3β4 receptors at concentrations from 0.1 μM to 100 μM. […] This is typical of most classical nicotinic ligands.^34

The target in another assay is T8, α3β4 nAChR subtype (Rattus norvegicus, UniProt P04757+P12392).
T8 construct: expressed in transfected cells; host or cells: KXα3β4R2 cells (named in the result head)
Described as above. It counts as cell-based. The protocol: as §1

In the next assay the target is T9, α4β2 nAChR's (Homo sapiens, UniProt P17787+P43681).
T9 construct: expressed in transfected cells
The assay is described as follows: 86Rb+ efflux assay, agonist activity. Format: cell-based. To be noted: tested at 0.1, 1, 10 and 100 μM.

The mark [2] stands for this setting: mean of three to five independent measurements, [3H]epibatidine, read-out: Ki α2β2.
Where [3] appears, read: mean of three to five independent measurements, [3H]epibatidine, read-out: Ki α3β4.
Setting [4] is: mean of three to five independent measurements, [3H]epibatidine, read-out: Ki α2β4.
Setting [5] is: mean of three to five independent measurements, [3H]epibatidine, read-out: Ki α3β2.
Where [6] appears, read: mean of three to five independent measurements, [3H]epibatidine, read-out: Ki α4β2.
The mark [7] stands for this setting: mean of three to five independent measurements, [3H]epibatidine, read-out: Ki α4β4.
Where [8] appears, read: estimated from single run concentration binding assay.
The mark [9] stands for this setting: primary screening, estimated from single concentration (10 μM) competition binding.

Like-named read-outs stand apart in the source and are kept apart here.

For `O=c1c(-c2ccc(F)cc2)ccc2n1CC1CNCC2C1` (single isomer, unassigned; (-)) [(−)-21a, 9-(4-Fluorophenyl)-1,2,3,4,5,6-hexahydro-1,5-methano-pyrido[1,2-a][1,5]diazocin-8-one], the Ki stood at 0.82 µM on α2β2 nAChR (setting [2]); 3.1 µM in [1]; 66 µM on α3β4 nAChR (setting [3]); 8.1 µM on α2β4 nAChR (setting [4]); 12 µM at α3β2 nAChR (setting [5]); 0.42 µM at α4β2 nAChR (setting [6]). The Ki on α4β4 nAChR (setting [7]) was 3.3 µM. The “Affinity ratio (α3β4/α4β2)” value on α4β2 nAChR is recorded as 157.

For the molecule “10-Cyclohexyl(methoxymethyl)-1,2,3,4,5,6-hexahydro-1,5-methano-pyrido[1,2-a][1,5]diazocin-8-one [rac-25]”, the potency estimated from few doses is below 0.017 µM on α2β2 nAChR (setting [8]); 0.17 µM in assay [1] (estimated from single run concentration binding assay, read-out: Estimated Ki Forebrain); 25 µM on α3β4 nAChR (setting [8]); 0.78 µM at α2β4 nAChR (setting [8]); 0.8 µM on α3β2 nAChR (setting [8]); below 0.029 µM at α4β2 nAChR (setting [8]). For the same molecule, at α4β4 nAChR (setting [8]), the potency estimated from few doses is 0.15 µM. For the same molecule, the “Affinity ratio (α3β4/α4β2)” value at α4β2 nAChR is reported as above 862.

Turning to `O=c1ccccn1CC1CCCNC1` (centres unmarked) [Compound 6a, 1-(Piperidin-3-ylmethyl)pyridin-2(1H)-one], the potency estimated from few doses is 4.63 µM at α2β2 nAChR (setting [9]); 253 µM with α6β42; 535 µM at α3β4 nAChR (setting [9]); 159 µM at α2β4 nAChR (setting [9]); 18.7 µM on α3β2 nAChR (setting [9]); 1.78 µM on α4β2 nAChR (setting [9]). Besides, at α4β4 nAChR (setting [9]), the potency estimated from few doses is 5.55 µM.

`Cc1ccc(-c2ccc3n(c2=O)CC2CNCC3C2)s1` (single isomer, unassigned; (-)) [(−)-21c, 9-(5-Methyl-2-thienyl)-1,2,3,4,5,6-hexahydro-1,5-methano-pyrido[1,2-a][1,5]diazocin-8-one]: the Ki was found to be 0.5 µM on α2β2 nAChR (setting [2]); 1.2 µM in assay [1]; 23 µM at α3β4 nAChR (setting [3]); 1.7 µM on α2β4 nAChR (setting [4]); 6 µM on α3β2 nAChR (setting [5]); 0.39 µM at α4β2 nAChR (setting [6]). Also, at α4β4 nAChR (setting [7]), the inhibition constant Ki amounted to 0.59 µM. The “Affinity ratio (α3β4/α4β2)” value at α4β2 nAChR came out at 59.

Regarding `O=c1ccccn1CC1CCCN(Cc2ccccc2)C1` (centres unmarked) [Compound 6c, 1-[(1-Benzylpiperidin-3-yl)methyl]pyridin-2(1H)-one], the potency estimated from few doses on α2β2 nAChR (setting [9]) was 100 µM; with α6β42 it was 54 µM; on α3β4 nAChR (setting [9]), 83 µM; at α2β4 nAChR (setting [9]), 91 µM; on α3β2 nAChR (setting [9]), 4.3 µM; on α4β2 nAChR (setting [9]) it was 0.54 µM. Moreover, the potency estimated from few doses on α4β4 nAChR (setting [9]) is 1.4 µM.

On to `CCC(=O)[C@H]1C2CNCC(C2)c2cccc(=O)n21` (single isomer, unassigned; (-)) [(−)-23, 6-Propionyl-1,2,3,4,5,6-hexahydro-1,5-methano-pyrido[1,2-a][1,5]diazocin-8-one], for which the Ki on α2β2 nAChR (setting [2]) stood at 14 µM; in assay [1] it was 23 µM; at α3β4 nAChR (setting [3]), 280 µM; at α2β4 nAChR (setting [4]) it was 50 µM; at α3β2 nAChR (setting [5]), 300 µM; at α4β2 nAChR (setting [6]), 16 µM. In addition, the Ki at α4β4 nAChR (setting [7]) was 20 µM. In addition, the “Affinity ratio (α3β4/α4β2)” value on α4β2 nAChR worked out at 18.

Turning to `Cc1cc2n(c(=O)c1)CC1CNCC2C1` (racemic) [rac-15, 10-Methyl-1,2,3,4,5,6-hexahydro-1,5-methano-pyrido[1,2-a][1,5]diazocin-8-one], the Ki at α2β2 nAChR worked out at 0.0075 µM; at α3β4 nAChR it was 6.7 µM; on α2β4 nAChR, 0.18 µM; on α3β2 nAChR, 0.54 µM; on α4β2 nAChR, 0.0019 µM; on α4β4 nAChR, 0.038 µM. In addition, the “Affinity ratio (α3β4/α4β2)” value on α4β2 nAChR is given as 3526; at α4β2 nAChR (listed as 15), above 3000. Moreover, at α4β2 nAChR subtype (at 100 μM, read-out: Inhibition of the function of the α4β2 nAChR subtype), the inhibition at 100 µM was above 50%. In addition, the “Block of nicotine stimulated responses at α4β2” value at α4β2 nAChR subtype (concentrations up to 10 μM) was “did not significantly block nicotine stimulated responses”. The “Inhibition of the function of the α3β4 nAChR subtype” value on α3β4 nAChR subtype (at 100 μM) is on record as “only slightly inhibited”. Also, the “Block of nicotine stimulated responses at α3β4” value on α3β4 nAChR subtype (concentrations up to 10 μM) was “did not significantly block nicotine stimulated responses”. Further, the “Agonist activity at α4β2 (86Rb+ efflux)” value on α4β2 nAChR's was “did not show agonist activity”.

In the case of `COC(=O)[C@H]1C2CNCC(C2)c2cccc(=O)n21` (single isomer, unassigned; (-)) [(−)-22, 8-Oxo-1,3,4,5,6,8-hexahydro-2H-1,5-methano-pyrido[1,2-a][1,5]diazocine-6-carboxylic acid methyl ester], the Ki on α2β2 nAChR (setting [2]) is 17 µM; in assay [1] it was 48 µM; at α3β4 nAChR (setting [3]) it was 320 µM; on α2β4 nAChR (setting [4]), 75 µM; at α3β2 nAChR (setting [5]), 250 µM; on α4β2 nAChR (setting [6]), 24 µM. The Ki at α4β4 nAChR (setting [7]) came to 33 µM. Besides, the “Affinity ratio (α3β4/α4β2)” value on α4β2 nAChR is on record as 13.

Consider `O=c1ccccn1CC1CCN(Cc2ccccc2)CC1` [Compound 7b, 1-[(1-Benzyl-piperidin-4-yl)methyl]pyridin-2(1H)-one], for which the potency estimated from few doses is 26 µM on α2β2 nAChR (setting [9]); 470 µM with α6β42; 620 µM at α3β4 nAChR (setting [9]); 440 µM on α2β4 nAChR (setting [9]); 7.3 µM on α3β2 nAChR (setting [9]); 1.3 µM at α4β2 nAChR (setting [9]). Also, the potency estimated from few doses at α4β4 nAChR (setting [9]) was 4.5 µM.

Consider `O=c1ccccn1CC1CCNCC1` [Compound 7a, 1-(Piperidin-4-ylmethyl)pyridin-2(1H)-one], for which the potency estimated from few doses in the assay on α6β42 was 87 µM; at α3β4 nAChR (setting [9]), 750 µM; at α2β4 nAChR (setting [9]), 80 µM; on α3β2 nAChR (setting [9]), 12 µM; at α4β2 nAChR (setting [9]), 1.6 µM; at α4β4 nAChR (setting [9]) it was 5.4 µM.

Turning to `CCCCc1ccc(-c2ccc3n(c2=O)CC2CNCC3C2)cc1` (single isomer, unassigned; (-)) [(−)-21b, 9-(4-Butylphenyl)-1,2,3,4,5,6-hexahydro-1,5-methano-pyrido[1,2-a][1,5]diazocin-8-one], the Ki was determined as 8 µM at α2β2 nAChR (setting [2]); 21 µM in assay [1]; 140 µM on α3β4 nAChR (setting [3]); 28 µM at α2β4 nAChR (setting [4]); 36 µM at α3β2 nAChR (setting [5]); 8.2 µM at α4β2 nAChR (setting [6]). The Ki on α4β4 nAChR (setting [7]) was found to be 13 µM. Further, the “Affinity ratio (α3β4/α4β2)” value on α4β2 nAChR amounted to 17.

As to `CN1CCCC(Cn2ccccc2=O)C1` (centres unmarked) [Compound 6b, 1-[(1-Methylpiperidin-3-yl)methyl]pyridin-2(1H)-one], the potency estimated from few doses at α2β2 nAChR (setting [9]) is 19 µM; in the assay with α6β42, 76 µM; at α3β4 nAChR (setting [9]) it was 160 µM; at α2β4 nAChR (setting [9]), 180 µM; on α3β2 nAChR (setting [9]), 6 µM; on α4β2 nAChR (setting [9]), 0.98 µM. Moreover, on α4β4 nAChR (setting [9]), the potency estimated from few doses is 2.6 µM.
